Measurements published in ChEMBL document CHEMBL1201862, “PubChem BioAssay data set” (2004).
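Results reflect a 48-hour exposure of cells in 96-well plates to compound at five concentrations. GI50: concentration for 50% inhibition of growth.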 Activity calls are given as the source filed them. Cut-off read from the data, not from the text of the source: active = GI50 up to about 1.1 µM and inactive = higher.

Columns and labels:
Assay in all cases: growth of human tumour cells (NCI), 48 h
HL-60 = test system: HL-60
SN12C = test system: SN12C
HT-29 = test system: HT-29
UACC-257 = test system: UACC-257
ACHN = test system: ACHN
NCI-H522 = test system: NCI-H522
SF-295 = test system: SF-295
SK-MEL-5 = test system: SK-MEL-5
SW-620 = test system: SW-620
TK-10 = test system: TK-10
RXF 393 = test system: RXF 393
SK-OV-3 = test system: SK-OV-3
M14 = test system: M14
CAKI-1 = test system: CAKI-1

Measured: GI50

COCCOCOC(C)(C)[C@H](CCOC(C)=O)O[Si](c1ccccc1)(c1ccccc1)C(C)(C)C
inactive: HL-60 3.98 µM | SN12C 5.77 µM | HT-29 12.9 µM | UACC-257 7.19 µM | ACHN 15.2 µM | NCI-H522 5.52 µM | SF-295 16 µM | SK-MEL-5 10.5 µM | SW-620 28.1 µM | TK-10 22.8 µM | RXF 393 16 µM | SK-OV-3 35.4 µM | M14 14.1 µM | CAKI-1 26.2 µM

O=C(O)CCC(=O)Oc1ccc(O)c2c1CCCC2=O
inactive: HL-60 > 100 µM | SN12C > 100 µM | HT-29 > 100 µM | UACC-257 > 100 µM | ACHN > 100 µM | NCI-H522 66.5 µM | SF-295 > 100 µM | SK-MEL-5 49.8 µM | SW-620 > 100 µM | TK-10 > 100 µM | RXF 393 > 100 µM | SK-OV-3 > 100 µM | M14 > 100 µM

CC1(C)CC(=O)C(C(=O)Nc2cccs2)=C(O)C1
inactive: HL-60 24.1 µM | SN12C 39.4 µM | HT-29 49.1 µM | UACC-257 47.9 µM | ACHN 32.7 µM | NCI-H522 37.2 µM | SF-295 28.9 µM | SK-MEL-5 40.6 µM | SW-620 38.8 µM | TK-10 64.6 µM | RXF 393 29.9 µM | SK-OV-3 62.4 µM | M14 36.7 µM | CAKI-1 14.6 µM

CC1=C2[C@@H](c3ccccc3)C3C=CC2(c2ccccc23)N(C(=O)Nc2cccc3ccccc23)C1=O (some centres undefined)
inactive: HL-60 > 100 µM | SN12C > 100 µM | UACC-257 > 100 µM | ACHN > 100 µM | SF-295 > 100 µM | SK-MEL-5 > 100 µM | SW-620 > 100 µM | SK-OV-3 > 100 µM | M14 > 100 µM | CAKI-1 > 100 µM

O=c1[nH]c(=O)n([C@H]2C[C@@H](CO)[C@@H](O)C2)cc1I
inactive: HL-60 > 100 µM | SN12C > 100 µM | HT-29 > 100 µM | UACC-257 > 100 µM | ACHN > 100 µM | NCI-H522 > 100 µM | SF-295 > 10 µM | SK-MEL-5 > 100 µM | SW-620 > 100 µM | TK-10 > 100 µM | SK-OV-3 > 100 µM | M14 > 100 µM | CAKI-1 > 100 µM

Cc1ccc(Nc2nc3c(s2)C(=O)c2ccccc2C3=O)c(C)c1
inactive: HL-60 2.19 µM | SN12C 16.9 µM | HT-29 20.9 µM | UACC-257 8.13 µM | ACHN 15.7 µM | NCI-H522 3.14 µM | SF-295 15.3 µM | SK-MEL-5 13.1 µM | SW-620 20 µM | TK-10 21.8 µM | RXF 393 15.6 µM | SK-OV-3 29.6 µM | M14 14.3 µM | CAKI-1 14.2 µM

O=C1NCC2=C1CCC1c3ccccc3CCN21 (centres undefined)
inactive: HL-60 > 100 µM | SN12C > 100 µM | HT-29 > 100 µM | UACC-257 > 100 µM | ACHN > 100 µM | NCI-H522 > 100 µM | SF-295 > 100 µM | SK-MEL-5 > 100 µM | SW-620 > 100 µM | TK-10 > 100 µM | RXF 393 > 100 µM | SK-OV-3 > 100 µM | CAKI-1 > 100 µM

O=C(NCCCCCCNC(=O)OCCSCCn1cc(C(=O)NC(=O)OCc2ccccc2)c(=O)[nH]c1=O)OCCSCCn1cc(C(=O)NC(=O)OCc2ccccc2)c(=O)[nH]c1=O
inactive: SN12C > 100 µM | HT-29 > 100 µM | UACC-257 > 100 µM | ACHN > 100 µM | NCI-H522 > 100 µM | SF-295 > 100 µM | SK-MEL-5 > 100 µM | SW-620 > 100 µM | TK-10 > 100 µM | RXF 393 45.5 µM | M14 > 100 µM | CAKI-1 > 100 µM

COC(=O)c1cc(-c2cccn2C)c2c(c1C(=O)OC)c1ccccc1n2C
inactive: HL-60 37.5 µM | SN12C > 100 µM | HT-29 6.98 µM | UACC-257 82 µM | ACHN 17.9 µM | NCI-H522 18.1 µM | SF-295 41.3 µM | SK-MEL-5 44.3 µM | SW-620 85.1 µM | TK-10 > 100 µM | RXF 393 > 100 µM | SK-OV-3 > 100 µM | M14 77.4 µM

Cc1ccc(-n2nc(C(OC3OC(CO)C(O)C(O)C3O)C(O)CO)c3nc4cc(C)c(C)cc4nc32)cc1 (centres undefined)
inactive: SN12C > 100 µM | HT-29 > 100 µM | UACC-257 > 100 µM | ACHN > 100 µM | NCI-H522 > 100 µM | SF-295 > 100 µM | TK-10 > 100 µM | RXF 393 36.2 µM | SK-OV-3 > 100 µM | M14 > 100 µM

COc1ccc2nc(-c3ccc(O)cc3)ccc2c1
inactive: HL-60 > 100 µM | SN12C > 100 µM | HT-29 > 100 µM | UACC-257 > 100 µM | ACHN > 100 µM | NCI-H522 > 100 µM | SF-295 > 100 µM | SK-MEL-5 > 100 µM | SW-620 > 100 µM | TK-10 > 100 µM | RXF 393 > 100 µM | SK-OV-3 > 100 µM | M14 > 100 µM

C[C@]12CCC(=O)C=C1CC[C@@H]1[C@@H]2C(=O)C[C@@]2(C)[C@H]1CC[C@]2(O)C(=O)CO [CORTISONE]
inactive: HL-60 > 100 µM | SN12C > 100 µM | HT-29 > 100 µM | ACHN > 100 µM | NCI-H522 > 100 µM | SF-295 > 100 µM | SK-MEL-5 > 100 µM | SW-620 > 100 µM | TK-10 > 100 µM | RXF 393 > 100 µM | SK-OV-3 > 100 µM | M14 > 100 µM | CAKI-1 > 100 µM

COC(=O)C1=NC(=S)NC(c2ccccc2)C1c1nc2ccccc2s1 (centres undefined)
inactive: HL-60 98.2 µM | SN12C > 100 µM | HT-29 > 100 µM | UACC-257 > 100 µM | ACHN > 100 µM | SF-295 > 100 µM | SK-MEL-5 > 100 µM | SW-620 > 100 µM | TK-10 > 100 µM | RXF 393 > 100 µM | SK-OV-3 > 100 µM | M14 > 100 µM | CAKI-1 > 100 µM

C[C@H]1CC[P+](Cc2ccccc2)(c2ccccc2)C1 (some centres undefined)
inactive: HL-60 33.9 µM | SN12C > 100 µM | HT-29 73.6 µM | UACC-257 25.7 µM | ACHN > 100 µM | NCI-H522 76.7 µM | SF-295 > 100 µM | SK-MEL-5 22.2 µM | SW-620 > 100 µM | TK-10 > 100 µM | RXF 393 > 100 µM | SK-OV-3 > 100 µM | M14 > 100 µM

N#CC(/C(CCC(=O)Nc1ccc(Cl)cc1)=N/NC(=O)c1cc2ccccc2cc1O)c1ccccc1 (centres undefined)
inactive: HL-60 6.53 µM | SN12C 43.4 µM | HT-29 45.9 µM | UACC-257 30.7 µM | ACHN 24.9 µM | SF-295 39.8 µM | SK-MEL-5 19.4 µM | SW-620 50.4 µM | TK-10 56.5 µM | RXF 393 56.5 µM | M14 32.6 µM
